Assays:
[1] = Inhibition of mouse his-tagged ctSI expressed in Sf9 cells assessed as amount of glucose produced using maltose as a substrate after 45 mins by glucose oxidase assay
[2] = Inhibition of mouse his-tagged ctMGAM-N2 expressed in Sf9 cells assessed as amount of glucose produced using maltose as a substrate after 45 mins by glucose oxidase assay
[3] = Selectivity ratio of Ki for human ntMGAM to Ki for mouse ctMGAM-N20
[4] = Inhibition of mouse his-tagged ctMGAM-N20 expressed in Sf9 cells assessed as amount of glucose produced using maltose as a substrate after 45 mins by glucose oxidase assay
[5] = Inhibition of human ntMGAM expressed in Drosophila S2 cells assessed as amount of glucose produced using maltose as a substrate after 45 mins by glucose oxidase assay; assay type: cell-based
Mus musculus [6] = organism: Mus musculus; test: Selectivity ratio of Ki for mouse ctSI to Ki for mouse ctMGAM-N20
[7] = Selectivity ratio of Ki for human ntSI to Ki for mouse ctMGAM-N2
Mus musculus [8] = organism: Mus musculus; test: Selectivity ratio of Ki for mouse ctSI to Ki for mouse ctMGAM-N2
[9] = Inhibition of human ntSI expressed in Drosophila S2 cells assessed as amount of glucose produced using maltose as a substrate after 45 mins by glucose oxidase assay; assay type: cell-based
[10] = Selectivity ratio of Ki for human ntSI to Ki for mouse ctSI
[11] = Selectivity ratio of Ki for human ntSI to Ki for mouse ctMGAM-N20
[12] = Selectivity ratio of Ki for human ntMGAM to Ki for mouse ctMGAM-N2
[13] = Selectivity ratio of Ki for human ntMGAM to Ki for mouse ctSI
Mus musculus [14] = organism: Mus musculus; test: Selectivity ratio of Ki for mouse ctMGAM-N20 to Ki for mouse ctMGAM-N2
Mus musculus [15] = organism: Mus musculus; test: Ratio of Km for mouse ctMGAM-N20 to Km for mouse ctMGAM-N2
[16] = Activity of mouse his-tagged ctSI expressed in Sf9 cells assessed as amount of glucose produced after 45 mins by glucose oxidase assay
[17] = Activity of human ntSI expressed in Drosophila S2 cells assessed as amount of glucose produced after 45 mins by glucose oxidase assay; assay type: cell-based
[18] = Activity of human ntMGAM expressed in Drosophila S2 cells assessed as amount of glucose produced after 45 mins by glucose oxidase assay; assay type: cell-based
[19] = Activity of mouse his-tagged ctMGAM-N20 expressed in Sf9 cells assessed as amount of glucose produced using maltose as a substrate after 45 mins by glucose oxidase assay
[20] = Activity of mouse his-tagged ctMGAM-N2 expressed in Sf9 cells assessed as amount of glucose produced using maltose as a substrate after 45 mins by glucose oxidase assay
[21] = Activity of mouse his-tagged ctMGAM-N2 expressed in Sf9 cells assessed as amount of glucose produced after 45 mins by glucose oxidase assay
[22] = Activity of mouse his-tagged ctMGAM-N20 expressed in Sf9 cells assessed as amount of glucose produced after 45 mins by glucose oxidase assay
Homo sapiens = organism: Homo sapiens; test: Selectivity ratio of Ki for human ntMGAM to Ki for human ntSI
Mus musculus [23] = organism: Mus musculus; test: Selectivity ratio of Ki for mouse ctMGAM-N2 to Ki for mouse ctSI
Mus musculus [24] = organism: Mus musculus; test: Selectivity ratio of Ki for mouse ctMGAM-N2 to Ki for mouse ctMGAM-N20

| Ratio Ki [3] | Ratio Ki [12] | Ratio Ki [13] | SMILES | Ki [1] [nM] | Ki [2] [nM] | Ki [4] [nM] | Ki [5] [nM] | Ki [9] [nM] | also measured |
| --- | --- | --- | --- | --- | --- | --- | --- | --- | --- |
| 1000 | 1000 | 100 | C[C@H]1O[C@H](O[C@H]2[C@H](O)[C@@H](O)[C@@H](O[C@H]3[C@H](O)[C@@H](O)C(O)O[C@@H]3CO)O[C@@H]2CO)[C@H](O)[C@@H](O)[C@@H]1N[C@H]1C=C(CO)[C@@H](O)[C@H](O)[C@H]1O (stereo not given in full) [ACARBOSE] | 246 | 9 | 28 | 62000 | 14000 | Ratio Ki (Mus musculus [6]): 1000; Ratio Ki [7]: 1000; Ratio Ki (Mus musculus [8]): 1000; Ratio Ki [10]: 100; Ratio Ki [11]: 1000 |
|  |  |  | OC[C@@H]1[C@@H](O)[C@H](O)C[S+]1C[C@@H](O)[C@@H](O)[C@H](O)[C@H](O)[C@@H](O)CO (stereo not given in full) [DE-O-SULFONATED KOTALANOL] | 26 | 26 | 78 | 30 | 12 |  |
|  |  |  | O=S(=O)([O-])O[C@@H]([C@H](O)[C@H](O)[C@@H](O)CO)[C@H](O)C[S+]1C[C@@H](O)[C@H](O)[C@H]1CO (stereo not given in full) [KOTALANOL] | 42 | 64 | 92 | 190 | 600 |  |
|  |  |  | OC[C@H]1O[C@H](O[C@H]2[C@H](O)[C@@H](O)[C@H](O)O[C@@H]2CO)[C@H](O)[C@@H](O)[C@@H]1O [MALTOSE] |  |  |  |  |  | Km [1]: 2500 µM; Ratio (Mus musculus [15]): 4; Km [16]: 2500 µM; Km [17]: 7100 µM; Km [18]: 4300 µM; Km [19]: 1910 µM; Km [20]: 1590 µM; Km [21]: 1590 µM; Km [22]: 1910 µM |
| 4 | 4 | 4 | OCCN1C[C@H](O)[C@@H](O)[C@H](O)[C@H]1CO [MIGLITOL] | 130 | 211 | 230 | 1000 | 148 | Ratio Ki (Homo sapiens): 4 |
| 5 |  | 5 | O=S(=O)([O-])O[C@@H](CO)[C@H](O)C[S@+]1C[C@@H](O)[C@H](O)[C@H]1CO [SALACINOL] | 47 | 213 | 58 |  | 277 | Ratio Ki (Mus musculus [23]): 5; Ratio Ki [10]: 5; Ratio Ki (Mus musculus [24]): 4; Ratio Ki [11]: 5 |

| SMILES | Ratio Ki [3] | Ratio Ki [12] | Ratio Ki [13] | Ki [1] [nM] | Ki [2] [nM] | Ki [4] [nM] | Ki [5] [nM] | Ki [9] [nM] | also measured |
| --- | --- | --- | --- | --- | --- | --- | --- | --- | --- |
| O=S(=O)([O-])O[C@@H](CO)[C@H](O)C[Se+]1C[C@@H](O)[C@H](O)[C@H]1CO (stereo not given in full) [BLINTOL] |  | 10 |  | 29 | 18 | 13 | 490 | 160 | Ratio Ki [7]: 10; Ratio Ki (Mus musculus [8]): 10; Ratio Ki (Mus musculus [14]): 10 |
